Data taken from patent US20200317660A1, “Quinazolinone Compound and Application Thereof” (LUOXIN PHARMACEUTICAL (SHANGHAI) CO., LTD., priority 2017, published 2020).
Like-named read-outs stand apart in the source and are kept apart here.

How the values were obtained:
[1] = system: phosphorylation of PI3K downstream protein Akt in MCF7 cells; assay: In vitro test of cells activity: ELISA of Akt phosphorylation in MCF7 cells; type: cell-based; conditions: 2 h compound, insulin 10 μg/mL stimulation, pAkt ELISA, read-out: MCF7 Cell IC50
Procedure: 2. In vitro test of cells activity
By the method of ELISA, the inhibition level of the test compound on the phosphorylation of PI3K downstream protein Akt in the signaling pathway was determined in MCF7 cells line to reflect the cells activity of the compound.
Cell culture medium: complete cell culture medium (RPMI 1640+10% serum+1% L-glutamine+1% double antibody)
Serum-free medium (without serum, RPMI 1640+1% L-glutamine+1% double antibody)
The detailed procedures areas follows:
(1) MCF7 cells (ATCC® HTB-22™) were inoculated into a 96-well plate at 100 μL of cell complete medium per well (2.5*10^4 cells per well), and the cells were incubated at 37° C. and 5% CO2 for 24 hours.
(2) The complete cell culture medium was replaced with 100 μL of serum-free medium, and incubated for starvation overnight.
(3) The compound was prepared (The initial concentration of the compound is 1 mM, which was subjected to a three-fold dilution in 10 concentrations, and the compound of each concentration was then diluted 100-fold with serum-free medium). 25 μL of the diluted compound was added to the cells orifice plate.
(4) The cells were incubated at 37° C. and 5% CO2 for 2 hours.
(5) The cells in the well plate were stimulated with 10 μg/mL insulin (Sigma # I9278-5 mL), incubated for 30 minutes, and then centrifuged at 1000 rpm for 5 minutes at room temperature.
(6) 250 μL of 1× balanced salt solution (Invitrogen, #14065-056, 4° C., containing 1 mM/L Na3VO4) was added to each well to wash the cells once.
(7) 100 μL of lysis buffer (trimethylolaminomethane hydrochloride, Invitrogen, #15567-1000 ml) was added to each well, shaken at 4° C. for 60 minutes, and then centrifuged at 4000 rpm for 4 minutes.
(8) The following procedures were carried out according to the instructions of ELISA kit (TGR BioSciences # EKT002).

PI3Kδ = target: T1, PI3Kδ (Homo sapiens, UniProt O00329); assay: In vitro test of enzyme activity (ADP-Glo lipokinase), PI3K delta; type: biochemical; conditions: 40 μM ATP, 50 μM PIP2:3PS, 120 min
T1 construct: purchased Millipore 14-604-K
Procedure: (§1) 1. In Vitro Test of Enzyme Activity
(§2) The lipokinase reaction was carried out under the conditions of a suitable substrate and ATP, followed by two steps to detect the kinase activity with the ADP-Glo™ kit. The first step was terminating the kinase reaction, wherein the remaining ATP was completely removed and only ADP was left; the second step was adding kinase detection reagents to convert ADP to ATP, accompanied by luciferin/luciferase reaction. Finally, the output value of fluorescence value was converted into kinase activity.
(§3) Experimental materials and equipments:
(§4) 2. Kit: ADP-Glo™ Lipokinase and PIP2:3PS Kit (Promega # V1792)
(§5) The kit contains: 1 mM PIP2:3PS, 10× lipid dilution buffer, 1 M magnesium chloride, 10 mM ATP, 10 mM ADP, ADP-Glo reagent, detection buffer and detection substrate.
(§6) 3. Reaction plate: OptiPlate-384, white and transparent (PerkinElmer #6007299).
(§7) 1. 10× reaction buffer: 500 mM HEPES, pH 7.5, 500 mM NaCl, 9 mM MgCl2; BSA: 10% stock solution, homemade.
(§8) 2. Final test system conditions: 1× reaction system: 50 mM HEPES, 50 mM NaCl, 3 mM MgCl2, 0.01% BSA (freshly prepared on the day of the experiment), 1% DMSO (v/v)+/−compound
(§9) 3. Reaction system: 3 μL mixture of the enzyme and the substrate (1:1)+2 μL ATP/MgCl2 mixture+5 μL ADP-Glo reagent+10 μL detection reagent.
(§10) The detailed experimental procedures are as follows:
(§11) 1. Compound dilution: 50 nL 100×compound/DMSO was transferred to the test well plate with Echo. • For PI3Kα, the compound was diluted three-fold from the highest concentration of 0.111 mM for a total of 10 concentrations. • For PI3Kβ/PI3Kδ/PI3Kγ, the compound was three-fold diluted from the highest concentration of 1.11 mM for a total of 10 concentrations.
(§12) (1) The compound to be tested was prepared and 50 nL of 100 plus compound solution or DMSO was added to the corresponding well plate.
(§13) (2) 3.33 plate reaction buffer was prepared.
(§14) (3) 3.33 solution PIP2:3PS was prepared, PIP2:3PS was thawed for at least 1 minute before use.
(§15) (4) 2.5 mM containing 5.25 mM MgCl2 was prepared.
(§16) (5) 3.33 PI3Kα/PI3Kβ/PI3Kδ/PI3Kγ solution was prepared.
(§17) (6) The lipokinase solution and the PIP2:3PS solution were mixed in a volume ratio of 1:1.
(§18) (7) 3.33: lipokinase buffer and PIP2:3PS solution were mixed in a volume ratio of 1:1.
(§19) (8) 3 μL of buffer solution and PIP2:3PS were added to the first and the second columns of the well plate.
(§20) (9) 3 μL of the mixed solution of the enzyme and PIP2:3PS was added to the wells except the first and the second columns, centrifuged for 10 seconds (1000 rpm) and incubated at 23° C. for 20 minutes.
(§21) (10) 2 μL […] was added and well was shaken.
(§22) (11) The well plate was covered and shaken for about 30 s, then the well plate was incubated at 23° C. for 2 hours.
(§23) (12) 5 μL of ADP-Glo reagent containing 10 mM MgCl2 was added.
(§24) (13) The well plate was centrifuged at 1000 rpm for 10 seconds, and the well plate was then covered, shaken for about 30 seconds, and incubated at 23° C. for 60 minutes.
(§25) (14) 10 μL kinase detection reagent was added.
(§26) (15) The well plate was centrifuged at 1000 rpm for 10 seconds, and then incubated at 23° C. for 60 minutes.
(§27) (16) The fluorescence value was measured on the Envision instrument.

PI3Kγ = target: T2, PI3Kγ (Homo sapiens, UniProt P48736); assay: In vitro test of enzyme activity (ADP-Glo lipokinase), PI3K gamma; type: biochemical; conditions: 25 μM ATP, 50 μM PIP2:3PS, 120 min
T2 construct: purchased Millipore 14-558-K
Procedure: as §1, §2, §3, §4, §5, §6, §7, §8, §9, §10, §11, §12, §13, §14, §15, §16, §17, §18, §19, §20, §21, §22, §23, §24, §25, §26, §27

PI3Kβ = target: T3, PI3Kβ (Homo sapiens, UniProt P42338); assay: In vitro test of enzyme activity (ADP-Glo lipokinase), PI3K beta; type: biochemical; conditions: 40 μM ATP, 50 μM PIP2:3PS, 120 min
T3 construct: purchased Promega V1751
Procedure: as §1, §2, §3, §4, §5, §6, §7, §8, §9, §10, §11, §12, §13, §14, §15, §16, §17, §18, §19, §20, §21, §22, §23, §24, §25, §26, §27

[2] = In vivo DMPK study in mice after a single administration; design: species or system female Balb/c mice; conditions: for Cmax / Oral DNAUC (area under the dose normalization curve): oral
Procedure: Experimental objective: female Balb/c mice were used as the test animals, and the blood concentration of the compound was determined and the pharmacokinetic behavior was evaluated after a single administration.
Experimental operation: 12 healthy adult female Balb/c mice were selected, 6 for intravenous injection group and 6 for oral administration group. The compound to be tested was mixed with an appropriate amount of intravenous injection group vehicle (10% HP-betaCD: 10% solutol=1:1, pH=8), vortex-mixed and sonicated to prepare a 1.0 mg/mL clear solution, followed by filtration for subsequent use; the vehicle in the oral group was 0.5% MC/0.2% Tw80. After the test compound and the vehicle were mixed, it was vortex-mixed and sonicated to prepare a 1.0 mg/mL homogeneous suspension for subsequent use. After an intravenous administration at a dose of 1 mg/kg or an oral administration at the dose of 2 mg/kg and 10 mg/kg, whole blood of the mice was collected for a certain period of time to prepare plasma. The drug concentration was analyzed by LC-MS/MS method, and Phoenix WinNonlin software was used (Pharsight, USA) to calculate the pharmacokinetic parameters.
Cmax: the highest concentration of the drug in the body; F %: oral bioavailability; Oral DNAUC: area under the dose normalization curve; Vd: apparent volume of distribution; Cl: clearance rate; T1/2: half-life.

PI3Kα = target: T4, PI3Kα (Homo sapiens, UniProt P42336); assay: In vitro test of enzyme activity (ADP-Glo lipokinase), PI3K alpha; type: biochemical; conditions: 40 μM ATP, 50 μM PIP2:3PS, 120 min
T4 construct: purchased Millipore 14-602-K
Procedure: as §1, §2, §3, §4, §5, §6, §7, §8, §9, §10, §11, §12, §13, §14, §15, §16, §17, §18, §19, §20, §21, §22, §23, §24, §25, §26, §27

T2 sequence (P48736 whole entry): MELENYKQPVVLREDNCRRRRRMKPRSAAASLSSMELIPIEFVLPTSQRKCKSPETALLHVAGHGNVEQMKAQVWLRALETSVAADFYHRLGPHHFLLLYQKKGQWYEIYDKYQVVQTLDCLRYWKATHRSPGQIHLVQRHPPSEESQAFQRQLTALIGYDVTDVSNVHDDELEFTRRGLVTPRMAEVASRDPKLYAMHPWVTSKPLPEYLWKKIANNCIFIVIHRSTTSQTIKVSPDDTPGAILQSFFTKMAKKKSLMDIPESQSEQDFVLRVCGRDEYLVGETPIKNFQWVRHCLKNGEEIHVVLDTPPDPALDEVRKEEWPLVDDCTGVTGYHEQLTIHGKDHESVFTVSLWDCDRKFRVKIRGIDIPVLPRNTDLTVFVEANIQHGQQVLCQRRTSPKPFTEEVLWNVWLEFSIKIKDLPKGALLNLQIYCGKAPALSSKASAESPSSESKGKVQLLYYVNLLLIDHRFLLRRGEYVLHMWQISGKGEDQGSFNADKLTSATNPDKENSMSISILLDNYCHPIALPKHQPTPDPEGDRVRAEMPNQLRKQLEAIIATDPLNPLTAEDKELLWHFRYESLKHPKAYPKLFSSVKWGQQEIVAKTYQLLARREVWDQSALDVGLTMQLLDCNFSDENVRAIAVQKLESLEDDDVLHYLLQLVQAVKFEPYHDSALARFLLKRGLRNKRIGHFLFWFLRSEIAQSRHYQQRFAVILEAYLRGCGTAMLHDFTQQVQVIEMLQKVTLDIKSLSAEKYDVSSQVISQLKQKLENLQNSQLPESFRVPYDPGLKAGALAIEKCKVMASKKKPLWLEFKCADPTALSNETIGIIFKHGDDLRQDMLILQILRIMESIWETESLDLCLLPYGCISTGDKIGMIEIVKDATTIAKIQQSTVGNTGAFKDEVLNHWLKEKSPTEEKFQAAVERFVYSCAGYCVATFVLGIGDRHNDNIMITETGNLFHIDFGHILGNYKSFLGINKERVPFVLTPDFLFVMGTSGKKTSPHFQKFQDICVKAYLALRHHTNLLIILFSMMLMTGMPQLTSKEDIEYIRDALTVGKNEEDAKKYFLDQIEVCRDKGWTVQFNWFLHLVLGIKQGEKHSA
T1 sequence (O00329 whole entry): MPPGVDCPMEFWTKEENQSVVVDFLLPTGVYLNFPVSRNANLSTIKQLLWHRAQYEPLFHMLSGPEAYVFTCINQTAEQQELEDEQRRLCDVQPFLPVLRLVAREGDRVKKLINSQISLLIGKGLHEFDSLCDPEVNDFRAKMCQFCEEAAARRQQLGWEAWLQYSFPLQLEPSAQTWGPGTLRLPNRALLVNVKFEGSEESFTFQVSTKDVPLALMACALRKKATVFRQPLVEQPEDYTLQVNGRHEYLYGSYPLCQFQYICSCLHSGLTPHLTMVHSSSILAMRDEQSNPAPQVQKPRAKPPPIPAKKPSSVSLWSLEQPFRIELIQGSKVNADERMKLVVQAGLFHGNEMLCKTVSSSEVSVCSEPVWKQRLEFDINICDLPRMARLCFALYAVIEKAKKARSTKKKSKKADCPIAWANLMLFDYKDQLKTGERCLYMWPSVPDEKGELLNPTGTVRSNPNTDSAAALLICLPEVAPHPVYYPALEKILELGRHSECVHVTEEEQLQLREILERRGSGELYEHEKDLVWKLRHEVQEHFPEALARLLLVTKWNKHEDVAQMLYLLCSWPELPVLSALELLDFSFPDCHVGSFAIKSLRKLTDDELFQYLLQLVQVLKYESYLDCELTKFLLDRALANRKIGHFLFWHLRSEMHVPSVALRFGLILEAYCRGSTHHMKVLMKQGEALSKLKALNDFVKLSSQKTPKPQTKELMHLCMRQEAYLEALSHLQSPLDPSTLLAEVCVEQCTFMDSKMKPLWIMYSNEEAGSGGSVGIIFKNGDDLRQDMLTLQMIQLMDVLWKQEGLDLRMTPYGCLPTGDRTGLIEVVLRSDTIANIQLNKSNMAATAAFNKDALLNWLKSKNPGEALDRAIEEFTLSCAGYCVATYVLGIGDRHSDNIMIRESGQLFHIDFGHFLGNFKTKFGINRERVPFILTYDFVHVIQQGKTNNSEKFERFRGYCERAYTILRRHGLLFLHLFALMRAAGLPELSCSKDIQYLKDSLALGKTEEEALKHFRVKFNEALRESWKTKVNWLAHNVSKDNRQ
T1 sequence (P27986 whole entry partner): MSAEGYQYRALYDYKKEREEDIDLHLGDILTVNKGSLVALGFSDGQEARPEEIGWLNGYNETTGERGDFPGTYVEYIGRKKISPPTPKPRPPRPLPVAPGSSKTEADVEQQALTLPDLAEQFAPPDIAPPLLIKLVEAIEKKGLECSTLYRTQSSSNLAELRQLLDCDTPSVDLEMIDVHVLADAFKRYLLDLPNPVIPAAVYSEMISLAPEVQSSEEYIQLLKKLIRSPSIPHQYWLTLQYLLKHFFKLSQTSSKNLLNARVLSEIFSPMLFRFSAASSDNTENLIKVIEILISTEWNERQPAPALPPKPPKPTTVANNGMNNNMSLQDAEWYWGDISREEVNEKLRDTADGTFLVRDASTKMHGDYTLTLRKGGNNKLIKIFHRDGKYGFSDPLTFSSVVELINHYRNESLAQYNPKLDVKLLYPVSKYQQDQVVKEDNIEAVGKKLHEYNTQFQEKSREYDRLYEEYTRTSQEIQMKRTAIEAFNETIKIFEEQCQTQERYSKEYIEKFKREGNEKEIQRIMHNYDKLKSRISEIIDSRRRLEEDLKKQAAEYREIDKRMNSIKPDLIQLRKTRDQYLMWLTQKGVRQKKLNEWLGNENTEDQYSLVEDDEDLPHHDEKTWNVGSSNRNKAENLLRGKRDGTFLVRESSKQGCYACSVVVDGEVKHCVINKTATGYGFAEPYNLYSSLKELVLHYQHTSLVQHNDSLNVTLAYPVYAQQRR
T4 sequence (P42336 whole entry): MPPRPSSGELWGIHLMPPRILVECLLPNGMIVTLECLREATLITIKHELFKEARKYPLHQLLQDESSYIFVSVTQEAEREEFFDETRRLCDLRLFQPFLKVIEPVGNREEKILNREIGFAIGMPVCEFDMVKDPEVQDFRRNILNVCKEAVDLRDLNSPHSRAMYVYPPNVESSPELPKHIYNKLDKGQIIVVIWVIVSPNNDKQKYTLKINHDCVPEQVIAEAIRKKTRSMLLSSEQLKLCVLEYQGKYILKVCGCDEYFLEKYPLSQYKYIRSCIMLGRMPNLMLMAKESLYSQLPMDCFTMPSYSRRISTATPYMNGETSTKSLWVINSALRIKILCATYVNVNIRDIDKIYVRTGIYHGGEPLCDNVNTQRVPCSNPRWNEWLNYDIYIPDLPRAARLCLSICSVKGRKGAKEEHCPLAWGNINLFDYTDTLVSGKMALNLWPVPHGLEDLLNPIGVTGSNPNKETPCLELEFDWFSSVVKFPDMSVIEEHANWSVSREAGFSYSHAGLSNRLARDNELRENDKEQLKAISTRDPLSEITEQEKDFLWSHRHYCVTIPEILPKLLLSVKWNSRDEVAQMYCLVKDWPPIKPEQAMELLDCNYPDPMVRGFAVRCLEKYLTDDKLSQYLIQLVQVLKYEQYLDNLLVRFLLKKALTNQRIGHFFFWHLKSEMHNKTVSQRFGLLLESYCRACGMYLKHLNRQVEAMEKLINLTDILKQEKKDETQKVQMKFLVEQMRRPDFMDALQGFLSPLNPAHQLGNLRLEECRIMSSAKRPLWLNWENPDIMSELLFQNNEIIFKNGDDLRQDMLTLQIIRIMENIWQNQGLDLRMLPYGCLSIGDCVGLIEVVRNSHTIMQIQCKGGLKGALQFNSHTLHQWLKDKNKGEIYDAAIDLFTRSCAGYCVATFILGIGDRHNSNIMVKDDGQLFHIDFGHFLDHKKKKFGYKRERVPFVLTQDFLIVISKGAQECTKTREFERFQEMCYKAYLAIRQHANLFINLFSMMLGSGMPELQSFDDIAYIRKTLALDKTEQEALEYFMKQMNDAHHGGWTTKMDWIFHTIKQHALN
T4 sequence (P27986 whole entry partner): as the sequence (P27986 whole entry partner) above
T3 sequence (P42338 whole entry): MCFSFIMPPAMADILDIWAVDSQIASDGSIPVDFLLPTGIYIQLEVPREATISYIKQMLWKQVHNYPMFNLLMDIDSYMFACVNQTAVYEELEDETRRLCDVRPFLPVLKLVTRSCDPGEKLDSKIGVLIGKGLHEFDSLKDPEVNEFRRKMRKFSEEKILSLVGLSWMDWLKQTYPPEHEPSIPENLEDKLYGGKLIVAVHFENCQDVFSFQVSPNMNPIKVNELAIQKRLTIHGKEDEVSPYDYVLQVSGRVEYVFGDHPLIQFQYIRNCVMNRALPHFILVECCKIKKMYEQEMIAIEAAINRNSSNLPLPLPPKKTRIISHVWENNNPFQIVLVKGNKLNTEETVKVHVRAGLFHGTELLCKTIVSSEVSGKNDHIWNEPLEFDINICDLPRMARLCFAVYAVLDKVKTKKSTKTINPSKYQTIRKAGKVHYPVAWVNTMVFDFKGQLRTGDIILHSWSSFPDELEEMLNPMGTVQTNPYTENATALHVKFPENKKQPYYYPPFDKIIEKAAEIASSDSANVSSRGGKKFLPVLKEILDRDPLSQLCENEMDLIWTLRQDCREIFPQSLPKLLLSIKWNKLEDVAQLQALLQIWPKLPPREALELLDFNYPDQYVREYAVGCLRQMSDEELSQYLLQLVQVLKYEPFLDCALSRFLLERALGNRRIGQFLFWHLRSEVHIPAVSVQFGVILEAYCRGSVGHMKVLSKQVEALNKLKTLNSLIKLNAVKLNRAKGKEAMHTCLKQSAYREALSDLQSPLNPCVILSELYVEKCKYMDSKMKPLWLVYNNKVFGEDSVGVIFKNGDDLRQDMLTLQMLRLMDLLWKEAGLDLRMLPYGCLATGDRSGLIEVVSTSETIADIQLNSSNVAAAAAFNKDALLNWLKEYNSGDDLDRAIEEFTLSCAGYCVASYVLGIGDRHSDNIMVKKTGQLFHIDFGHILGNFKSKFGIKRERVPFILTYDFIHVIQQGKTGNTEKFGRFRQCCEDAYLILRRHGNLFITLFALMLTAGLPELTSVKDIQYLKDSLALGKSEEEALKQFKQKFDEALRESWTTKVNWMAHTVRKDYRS
T3 sequence (P27986 whole entry partner): as the sequence (P27986 whole entry partner) above

Compound	IC50 [1]	IC50 (PI3Kδ)	IC50 (PI3Kγ)	IC50 (PI3Kβ)	Cmax ([2]; 10 mpk)	Oral DNAUC (area under the dose normalization curve) ([2]; 10 mpk)	IC50 (PI3Kα)	IC50 ([1]; Homo sapiens, MCF7, 2 h)	Cmax ([2]; 2 mpk)	Oral DNAUC (area under the dose normalization curve) ([2]; 2 mpk)	Cl (clearance rate) ([2]; intravenous 1 mg/kg)	Intravenous injection T1/2 ([2]; intravenous 1 mg/kg)	Vd (apparent volume of distribution) ([2]; intravenous 1 mg/kg)	F % (oral bioavailability) ([2]; oral 10 mpk vs intravenous 1 mg/kg)
CNC(=O)C(C)Cn1cnc2ccc(-c3cnc(OC)c(NS(=O)(=O)c4cc(Cl)ccc4Cl)c3)cc2c1=O (single isomer, unassigned) [WX183]	51.4 nM	6.34 nM	8.21 nM	166 nM	25.9 µM	4867 nM · h/mpk	0.95 nM							
CNC(=O)C(C)Cn1cnc2c(F)cc(-c3cnc(OC)c(NS(=O)(=O)c4ccc(F)cc4Cl)c3)cc2c1=O (single isomer, unassigned) [WX105]	193 nM	41.1 nM	29.2 nM	1150 nM			10.5 nM							
COc1ncc(-c2ccc3ncn(CCC(N)=O)c(=O)c3c2)cc1NS(=O)(=O)c1ccc(F)cc1Cl [WX001]		3.88 nM	4.57 nM	68.5 nM			1.16 nM	16.8 nM						
COc1ncc(-c2ccc3ncn(CC(C)C(=O)NCCF)c(=O)c3c2)cc1NS(=O)(=O)c1ccc(F)cc1Cl (single isomer, unassigned) [WX067]	67.4 nM	18.8 nM	18.3 nM	399 nM			2.47 nM		3.39 µM	1047 nM · h/mpk				
COc1ncc(-c2ccc3ncn(CC(C)C(=O)O)c(=O)c3c2)cc1NS(=O)(=O)c1ccc(F)cc1Cl (single isomer, unassigned) [R002, reference compound]	628 nM	122 nM	20.4 nM	1060 nM			13.6 nM							
CNC(=O)[C@H]1C[C@H](n2cnc3ccc(-c4cnc(C)c(NS(=O)(=O)c5ccc(F)cc5Cl)c4)cc3c2=O)C1 [WX013]		5.25 nM	15.2 nM	95.9 nM			1.22 nM	209 nM						
CNC(=O)[C@@H](C)Cn1cnc2ccc(-c3cnc(OC)c(NS(=O)(=O)c4ccc(F)cc4C(F)(F)F)c3)cc2c1=O [WX194]	84.9 nM	16.4 nM	17 nM	432 nM			3.42 nM							
CNC(=O)C(C)Cn1cnc2ccc(-c3cnc(OC)c(NS(=O)(=O)c4cc(C(F)(F)F)cc(C(F)(F)F)c4)c3)cc2c1=O (single isomer, unassigned) [WX103]	13.4 nM	403 nM	360 nM	2280 nM	18.3 µM	12262 nM · h/mpk	20.8 nM				1.29 mL/min/kg	3.55 h	0.324 L/kg	58.4%
CNC(=O)C(C)Cn1cnc2ccc(-c3cnc(OC)c(NS(=O)(=O)c4ccc(C)cc4C)c3)cc2c1=O (single isomer, unassigned) [WX091]	5.7 nM	26.2 nM	97.3 nM	537 nM			5.11 nM							
CNC(=O)C(C)Cn1cnc2ccc(-c3cnc(OC)c(NS(=O)(=O)c4ccc(F)cc4C)c3)cc2c1=O (single isomer, unassigned) [WX181]	9.04 nM	47.4 nM	48.3 nM	720 nM	8.34 µM	882.0 nM · h/mpk	7.06 nM							
CNC(=O)C(C)Cn1cnc2ccc(-c3cnc(OC)c(NS(=O)(=O)c4ccc(F)cc4)c3)cc2c1=O (single isomer, unassigned) [WX087]	19 nM	30.7 nM	41.3 nM	355 nM	5 µM	1372 nM · h/mpk	3.35 nM							
COc1ncc(-c2ccc3ncn(CC4(C(N)=O)CC4)c(=O)c3c2)cc1NS(=O)(=O)c1ccc(F)cc1Cl [WX023]		2.02 nM	20.6 nM	82.4 nM			5.71 nM	39.9 nM						
COc1ncc(-c2ccc3ncn(CC(C)C(=O)O)c(=O)c3c2)cc1NS(=O)(=O)c1ccc(F)cc1Cl (single isomer, unassigned) [R003, reference compound]		85 nM	5.29 nM	426 nM			7.16 nM	318 nM						
COc1ncc(-c2ccc3ncn(CC(C)C(N)=O)c(=O)c3c2)cc1NS(=O)(=O)c1sc(C)nc1C (single isomer, unassigned) [WX025]	23.9 nM	0.47 nM	1 nM	13.2 nM			0.41 nM							
COc1ncc(-c2ccc3ncn(CC(C)C(N)=O)c(=O)c3c2)cc1NS(=O)(=O)c1sc(C)nc1C (single isomer, unassigned) [WX024]	71.5 nM	0.47 nM	2.03 nM	19.9 nM			0.29 nM							
COCCNC(=O)C(C)Cn1cnc2ccc(-c3cnc(OC)c(NS(=O)(=O)c4ccc(F)cc4Cl)c3)cc2c1=O (single isomer, unassigned) [WX065]	72 nM	29.7 nM	45.2 nM	1120 nM			4.9 nM							
